Data taken from patent publication US20240217974A1, “ISOQUINOLONE COMPOUND AND USE THEREOF” (Suzhou Suncadia Biopharmaceuticals Co., Ltd., priority 2021, published 2024).
Like-named read-outs stand apart in the source and are kept apart here.

What was measured:
PDE4B1 = target: T1, PDE4B1 (Homo sapiens, UniProt Q07343); assay: In vitro PDE4B enzyme activity assay (IMAP FP-based); assay type: biochemical
T1 construct: purchased BPS 60041
Protocol: (§1) The formula for calculating inhibition rates is: inhibition rate=M/(M−Mcontrol)×100; IC50 values were calculated from concentration-inhibition rate curves fitted.

PDE3A = target: T2, PDE3A (Homo sapiens, UniProt Q14432); assay: In vitro PDE3A enzyme activity assay (IMAP FP-based); assay type: biochemical
T2 construct: purchased BPS 60030
T2 sequence (Q14432 669-1141 limits assumed): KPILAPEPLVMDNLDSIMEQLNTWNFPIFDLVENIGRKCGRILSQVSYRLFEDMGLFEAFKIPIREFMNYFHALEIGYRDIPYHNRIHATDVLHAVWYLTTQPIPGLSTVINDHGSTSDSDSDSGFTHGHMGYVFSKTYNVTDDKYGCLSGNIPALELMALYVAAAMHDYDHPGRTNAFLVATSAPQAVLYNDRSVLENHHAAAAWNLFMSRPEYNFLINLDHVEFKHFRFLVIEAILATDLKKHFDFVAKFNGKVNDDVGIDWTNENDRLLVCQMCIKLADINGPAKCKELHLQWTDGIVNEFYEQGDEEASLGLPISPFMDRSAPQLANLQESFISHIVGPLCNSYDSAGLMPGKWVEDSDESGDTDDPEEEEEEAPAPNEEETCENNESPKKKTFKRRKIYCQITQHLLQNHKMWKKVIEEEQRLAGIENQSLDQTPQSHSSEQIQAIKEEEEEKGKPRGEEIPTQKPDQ
Protocol: as §1

[1] = mouse, in vivo, inhaled or intranasal
Protocol: To evaluate the pharmacokinetic characteristics of test samples in […] and their distributions in lung tissue after intratracheal administration.
0.5 g of tween 80 was weighed out and dissolved in 50 mL of a pH 2.5 citric acid/disodium hydrogen phosphate buffered salt solution for later use.
1.0 mg of test compound was weighed out and dissolved in a proper amount of the tween solution to prepare a 0.03 mg/mL for later use.
0.5 g of CMC-Na and 0.5 g of tween 20 were weighed out and well mixed with 50 mL of 0.9% normal saline solution to obtain a 1% CMC-Na and tween 20 solution for later use.
1.0 mg of test compound was weighed out, added to 10 mL of the above solution, dispersed ultrasonically, and well stirred to obtain a suspension for later use.
Mice were anesthetized with isoflurane gas and then administered compounds via the trachea. […] 200 μL of whole blood was collected, then anticoagulated with EDTA-K2, and centrifuged at 2-8° C. at a rate of about 6800 g for 6 min. The resulting plasma was transferred to properly labeled test tubes within 1 h of blood collection/centrifugation and stored at −80° C. […] The collected tissue samples were transferred to properly labeled test tubes and stored at −80° C.
Plasma samples (30.0 μL) were added to 1.5 mL centrifuge tubes, and 150 μL of internal standard working solution was added. […]

[2] = recent phase II clinical data; cited from earlier work

T1 sequence (Q07343 whole entry): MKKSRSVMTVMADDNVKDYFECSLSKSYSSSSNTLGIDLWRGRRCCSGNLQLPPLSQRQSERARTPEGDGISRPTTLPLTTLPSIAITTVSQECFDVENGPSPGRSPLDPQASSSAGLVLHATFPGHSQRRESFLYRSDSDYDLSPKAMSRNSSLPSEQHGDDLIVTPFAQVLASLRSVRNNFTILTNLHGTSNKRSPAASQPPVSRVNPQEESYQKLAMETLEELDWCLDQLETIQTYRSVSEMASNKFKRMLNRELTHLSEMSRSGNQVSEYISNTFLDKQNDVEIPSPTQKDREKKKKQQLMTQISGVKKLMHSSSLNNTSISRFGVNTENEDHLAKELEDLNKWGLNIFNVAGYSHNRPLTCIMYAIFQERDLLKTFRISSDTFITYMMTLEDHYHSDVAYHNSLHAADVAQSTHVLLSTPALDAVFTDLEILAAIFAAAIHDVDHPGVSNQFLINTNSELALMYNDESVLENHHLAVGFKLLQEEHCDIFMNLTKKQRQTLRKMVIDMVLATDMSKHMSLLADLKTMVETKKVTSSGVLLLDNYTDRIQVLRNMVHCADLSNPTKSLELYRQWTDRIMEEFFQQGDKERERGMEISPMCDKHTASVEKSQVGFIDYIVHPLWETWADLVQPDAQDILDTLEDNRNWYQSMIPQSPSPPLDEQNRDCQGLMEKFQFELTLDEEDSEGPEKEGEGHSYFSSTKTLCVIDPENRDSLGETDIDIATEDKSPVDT

Compound | Inhibition rate (%) PDE4B1 (2000 nM) (PDE4B1; compound at 2000 nM) [%] | IC50 (PDE4B1; read-out: IC50 (nM) PDE4B1) [nM] | IC50 (PDE3A) [nM] | Inhibition rate (%) PDE3A (500 nM) (PDE3A; compound at 500 nM) [%] | Plasma T1/2 [1] [min] | Plasma Tmax [1] [min] | bronchodilation and symptoms in patients with chronic obstructive pulmonary disease [2] | tolerability / adverse events [2] | IC50 (PDE4B1) [nM] | inhibition at 2 µM (PDE4B1; read-out: Inhibition rate (%) PDE4B1 (2000 nM)) [%]
9,10-dimethoxy-2-(2,4,6-trimethylphenylimino)-3-(N-carbamoyl-2-aminoethyl)-3,4,6,7-tetrahydro-2H-pyrimido[6,l-a]isoquinolin-4-one [RPL554] | 64.2 | 110 | 0.25 | 99.2 | 52.8 | 15 | significantly improve bronchodilation and symptoms | well tolerated | – | –
CCOc1cc2c(cc1OC)-c1cc(N(CCN3CCOC3=O)c3c(C)cc(C)cc3C)nc(=O)n1CC2 [WX001] | – | – | – | – | – | – | – | – | 876 | 66.3
